{"source": "patent US20250144081A1", "about": "“METHODS FOR REDUCING ALCOHOL, DRUG, AND FOOD INTAKE” (The Scripps Research Institute, priority 2022, published 2025)", "key": {"C57BL/6J mice [1]": {"tested_on": "C57BL/6J mice", "assay": "drinking in the dark (DID) binge drinking paradigm, alcohol intake", "assay_type": "in vivo, mouse", "conditions": "for alcohol consumption in the DID paradigm over a 4 h drinking session: first 2 h and 4 h", "procedure": "The S1P agonists fingolimod (1, 2, and 4 mg/kg), ozanimod (0.25, 0.5, and 1 mg/kg) and CYM-5442 (1.25, 2.5, and 5 mg/kg) (Tocris, Minneapolis, MN, USA) were suspended in saline with 1% (w/v) Tween 80 and administered intraperitoneally (i.p.) (injection volume in mice 10 ml/kg, in rats 2 ml/kg). Pretreatment time was 30 min for fingolimod and ozanimod, while CYM-5442 was injected 60 min before each behavioral experiment.\nAcute effect of the S1P agonists was tested in alcohol binge-like drinking in male and female C57BL/6J mice exposed to the drinking in the dark paradigm. As described by Rhodes and colleagues (Rhodes et al. Physiol Behav 84:53-63, 2005; Thiele et al. Alcohol 48:235-41, 2014) 3 h after lights go off, the water bottle of single-housed mice was replaced with a bottle containing 20% (v/v) alcohol and left in place for 2 h, over three consecutive days during which mice stabilized alcohol drinking. […] Over the experiment, the amount of alcohol consumed by mice was measured by weighing (0.01 g accuracy) the bottle immediately before and after each drinking session. Alcohol consumption was expressed as grams of pure alcohol per kilogram of body weight (g/kg). In addition, at the end of the second 2 h drinking session, blood samples were collected from the tip of the tail of each mouse and BALs were measured."}, "[2]": {"conditions": "in words only; cited from earlier work"}, "C57BL/6J mice [3]": {"tested_on": "C57BL/6J mice", "assay": "respiratory exchange ratio (RER) by indirect calorimetry (CLAMS)", "assay_type": "in vivo, mouse", "procedure": "The effect of CYM-5442 on energy metabolism was tested by indirect calorimetry with the Comprehensive Lab Animal Monitoring System (CLAMS; Columbus Instruments, Columbus, OH USA). After 1-week acclimatization, on test day, mice were removed from metabolic chambers, injected with CYM-5442 3 h into the dark phase of the light/dark cycle and then placed back into chambers. […] The RER indicates the energy source the organism uses over the day. It is typically measured on a scale from 0.7 to 1.\n(§1) Effect of CYM-5442 was evaluated on food (g) and water intake (ml) and respiratory exchange ratio (RER: VCO2/VO2) of male C57BL/6J mice (n=30) allocated into CLAMS (Comprehensive Lab Animal Monitoring System, Columbus Instruments, Columbus, OH USA) chambers. After 1-week acclimatization, on test day, mice were removed from the metabolic chambers, injected with CYM-5442 60 min before 3 h into the dark of the light/dark cycle and then placed back into the chambers. Food, water intake and RER were monitored starting the 1st to the 12th h of the dark phase of the light/dark cycle."}, "Wistar rats [4]": {"tested_on": "Wistar rats", "assay": "rotarod test, motor coordination, rats", "assay_type": "in vivo, rat", "conditions": "CYM-5442 5 mg/kg; male Wistar rats", "procedure": "(§2) Effect of CYM-5442 on motor coordination was evaluated in male and female C57NBL/6J mice and male Wistar rats in the rotarod apparatus (Rotamex-5, Columbus Instruments, USA). Briefly, one week before testing, animals were extensively habituated to handling and intraperitoneal injections. On test day, animals were weighed and allocated into the four experimental groups. CYM-5442 or vehicle were injected intraperitoneally 60 min before the start of the first trial. Each subject underwent 3 trials of 300 s (intertrial interval 60 s) with a rotarod acceleration from 4 to 40 rpm. Trials in which animals fell before 5 s, calculated from the beginning of the trial, were repeated. For each animal, the latency to fall was assessed and expressed as the average values over the 3 trials."}, "C57BL/6J mice [5]": {"tested_on": "C57BL/6J mice", "assay": "loss of righting reflex (LORR), sensitivity to alcohol's hypnotic action", "assay_type": "in vivo, mouse"}, "C57BL/6J mice [6]": {"tested_on": "C57BL/6J mice", "assay": "rotarod test, motor coordination, mice", "assay_type": "in vivo, mouse", "conditions": "CYM-5442; male C57BL/6J mice", "procedure": "as §2"}, "C57BL/6J mice [7]": {"tested_on": "C57BL/6J mice", "assay": "acute food intake in 4 h sessions (CLAMS)", "assay_type": "in vivo, mouse", "conditions": "vs 0 mg/kg", "procedure": "The acute effect of CYM-5442 on food intake was measured in 4 h sessions. CYM-5442 was administered 1 h before the sessions. CYM-5442 reduced food intake in a dose-dependent manner at the doses of 2.5 and 5 mg/Kg in the first 2 h (FIG. 7A) and at the dose of 5 mg/kg after 4 h (FIG. 7B).\nas §1"}, "Wistar rats [8]": {"tested_on": "Wistar rats", "assay": "intravenous methamphetamine self-administration (FR1 and progressive ratio)", "assay_type": "in vivo, rat", "conditions": "CYM-5442 5 mg/kg i.p., male Wistar rats, vs vehicle", "procedure": "The effect of CYM-5442 was tested on methamphetamine self-administering rats. Male Wistar rats were aseptically implanted with chronic silastic catheters in the right jugular vein and were trained to self-administer methamphetamine (1 h/day at a dose of 0.05 mg/kg/infusion). Rats were trained to self-administer methamphetamine under a fixed-ratio 1 schedule of reinforcement (FR1) whereby one lever press results in the delivery of one methamphetamine infusion (0.05 mg/kg) under 1-h daily sessions.\nMale Wistar rats were aseptically implanted with intravenous catheters in the right jugular vein under deep isoflurane anesthesia as previously described in Ahmed et al. (Proc Natl Acad Sci USA 102:11533-8). At the time of testing, the rats' body weights ranged between 350 and 400 g.\nSelf-administration was performed in operant conditioning chambers (Med Associates, St. Albans, VT, USA) that were enclosed in lit, sound-attenuating, ventilated environmental cubicles. Methamphetamine was delivered through plastic catheter tubing that was connected to an infusion pump. The infusion pump was activated by responses on the right (active) lever. […] A computer controlled fluid delivery and behavioral data recording. All of the rats were tested for methamphetamine self-administration on a continuous reinforcement (fixed ratio 1, FR1) schedule. […] A 20-s timeout (TO) period followed each METH infusion. […]"}, "C57BL/6J mice [9]": {"tested_on": "C57BL/6J mice", "assay": "saccharin consumption in the DID paradigm", "assay_type": "in vivo, mouse", "conditions": "CYM-5442 5 mg/kg i.p., male C57BL/6J mice, first 2 h and 4 h", "source_text": "An identical experimental plan was adopted to evaluate acute effects of CYM-5442 on the no-drugs reinforcer saccharin (0.002% w/v). Independent groups of C57BL/6J mice were used for testing the effect of CYM-5442 on saccharin intake."}, "C57BL/6J mice [10]": {"tested_on": "C57BL/6J mice", "assay": "chronic treatment of LFD- or HFD-fed mice: body weight, food and water intake", "assay_type": "in vivo, mouse", "procedure": "(§3) The effect of chronic daily administration of CYM-5442 on body weight and body fat content was tested in mice fed either a low-fat diet (LFD; D12450K, 10 kcal % Fat, Research Diets, Inc. NJ, US) or a high-fat diet (HFD; D07011903, 45 kcal % Fat) ad libitum. Mice were treated with CYM-5442 (2.5 mg/kg, i.p.) or vehicle 5 days a week over 7 consecutive weeks. […] This is consistent with the moderate half-life of the drug that allows adlibitum fed mice to eat through the day. This finding supports that the metabolic effect of CYM-5442 of increased fat utilization or lipolysis is independent of reduction of food intake."}, "C57BL/6J mice [11]": {"tested_on": "C57BL/6J mice", "assay": "body composition by quantitative nuclear magnetic resonance (qNMR) after chronic treatment", "assay_type": "in vivo, mouse", "conditions": "chronic CYM-5442 2.5 mg/kg i.p.", "procedure": "as §3\nBody composition was determined with a quantitative nuclear magnetic resonance instrument (qNMR, Echo MRI, Houston, TX)."}, "MeCP2^308/Y mice": {"tested_on": "MeCP2^308/Y mice", "assay": "DID paradigm in low drinking MeCP2^308/Y mice, alcohol intake and BALs", "assay_type": "in vivo, mouse", "conditions": "PF-543 10 mg/kg i.p., 30 min before the drinking session"}, "body weight (fingolimod)": {"assay": "body weight (fingolimod)", "conditions": "in vivo"}, "[12]": {"tested_on": "mice with degenerative and inflammatory conditions", "conditions": "cited from earlier work"}, "[13]": {"assay": "rotarod test, motor impairment by S1P receptor agonists (fingolimod)", "conditions": "in vivo"}, "[14]": {"conditions": "CYM-5442 2.5 mg/kg i.p. chronic, HFD-fed or LFD-fed mice, vs vehicle"}}, "note": "Entries after “also recorded” stand apart in the source; their conditions may differ."}
{"smiles": "CCOc1ccc(-c2nc(-c3cccc4c3CCC4NCCO)no2)cc1OCC", "note": "(centres unmarked) [CYM-5442]", "values": [{"measurement": "alcohol consumption in the DID paradigm over a 4 h drinking session", "setting": "C57BL/6J mice [1]; CYM-5442 2.5, 5 mg/kg i.p., male C57BL/6J mice", "value": "reduces"}, {"measurement": "half-life (circulating)", "setting": "[2]", "value": "longer; also recorded: moderate"}, {"measurement": "Respiratory Exchange Ratio (RER), time course", "setting": "C57BL/6J mice [3]; CYM-5442 i.p. 1.25, 2.5, 5 mg/kg, for 1-3 hours, dose-dependent", "value": "significantly lower; also recorded: significantly reduced"}, {"measurement": "RER, average of 2 hours, first 2 hrs measure point (1-3 hrs after injection)", "setting": "C57BL/6J mice [3]; CYM-5442 i.p., 0 mg/kg vs 5 mg/kg", "value": "significantly reduced"}, {"measurement": "motor coordination in the rotarod apparatus", "setting": "Wistar rats [4]", "value": "did not affect"}, {"measurement": "duration of loss of righting reflex (LORR)", "setting": "C57BL/6J mice [5]; CYM-5442 2.5 mg/kg i.p., alcohol 3.5 g/kg, male C57BL/6J mice", "value": "significantly increases"}, {"measurement": "motor coordination performance in the rotarod apparatus (latency to fall, active run time)", "setting": "C57BL/6J mice [6]", "value": "did not affect; also recorded: does not alter"}, {"measurement": "food-intake during the 1st 2-hrs", "setting": "C57BL/6J mice [7]; CYM-5442 2.5 mg/kg and 5 mg/kg", "value": "significantly reduced"}, {"measurement": "food-intake over the entire 4-hrs session", "setting": "C57BL/6J mice [7]; CYM-5442 5 mg/kg", "value": "reduced"}, {"measurement": "lever-responding for methamphetamine, fixed-ratio 1 (FR1), 1-h self-administration session", "setting": "Wistar rats [8]; acute", "value": "significantly reduced"}, {"measurement": "methamphetamine self-administration under progressive ratio (PR) schedule, break point", "setting": "Wistar rats [8]", "value": "significantly reduced; also recorded: lower"}, {"measurement": "saccharin [0.002% (w/v)] consumption in the DID paradigm over a 4 h drinking session", "setting": "C57BL/6J mice [9]", "value": "reduces"}, {"measurement": "overall daily (24 h) food intake", "setting": "C57BL/6J mice [10]; [14]", "value": "did not differ"}, {"measurement": "overall daily (24 h) water intake", "setting": "C57BL/6J mice [10]; [14]", "value": "did not differ"}, {"measurement": "body weight gain in HFD-fed mice", "setting": "C57BL/6J mice [10]; CYM-5442 2.5 mg/kg i.p. daily, 5 days a week over 7 weeks, vs vehicle-treated HFD-fed mice", "value": "effectively prevented"}, {"measurement": "body fat in the low-fat diet (LFD)-fed control group (reduction)", "setting": "C57BL/6J mice [11]", "value": "not"}, {"measurement": "lean body mass", "setting": "C57BL/6J mice [11]", "value": "without affecting"}, {"measurement": "body fat in the HFD-fed group", "setting": "C57BL/6J mice [11]; vs vehicle in HFD, 2.5 mg/kg", "value": "significantly reduced"}]}
{"smiles": "Cc1cc(CS(=O)(=O)c2ccccc2)cc(OCc2ccc(CN3CCC[C@@H]3CO)cc2)c1", "note": "[PF-543]", "values": [{"measurement": "alcohol consumption of MeCP2^308/Y mice in the DID paradigm", "setting": "MeCP2^308/Y mice", "value": "increased"}]}
{"smiles": "CCCCCCCCc1ccc(CCC(N)(CO)CO)cc1", "note": "[fingolimod]", "values": [{"measurement": "alcohol consumption in the DID paradigm over a 4 h drinking session", "setting": "C57BL/6J mice [1]; fingolimod 4 mg/kg i.p., C57BL/6J mice", "value": "reduced"}, {"measurement": "half-life (circulating)", "setting": "[2]", "value": "longer"}, {"measurement": "body weight", "setting": "body weight (fingolimod)", "value": "did not affect"}, {"measurement": "motor deficits", "setting": "[12]", "value": "ameliorated"}, {"measurement": "motor impairment, performance in the rotarod test", "setting": "[13]", "value": "did not impair"}]}
{"smiles": "CC(C)Oc1ccc(-c2nc(-c3cccc4c3CC[C@@H]4NCCO)no2)cc1C#N", "note": "[ozanimod, Ozanimod (RPC1063)]", "values": [{"measurement": "alcohol consumption at the end of the 4-h drinking session (reducing effect)", "setting": "C57BL/6J mice [1]; ozanimod 0.25-1 mg/kg i.p., C57BL/6J mice, 4 h, p>0.05", "value": "not evident"}, {"measurement": "alcohol consumption in the DID paradigm after 2 h", "setting": "C57BL/6J mice [1]; ozanimod 0.25-1 mg/kg i.p., C57BL/6J mice, first 2 h, p<0.05", "value": "reduced"}, {"measurement": "half-life (circulating)", "setting": "[2]", "value": "short"}, {"measurement": "duration of loss of righting reflex (LORR)", "setting": "C57BL/6J mice [5]; ozanimod 0.1 and 0.3 mg/kg i.p., C57BL/6J mice", "value": "significantly increased"}, {"measurement": "motor deficits", "setting": "[12]", "value": "ameliorated"}]}
